Results reported in patent publication US20040063699A1, “Gpr14 antagonist” (priority 2000, published 2004).
Where a name gives a salt, the structure may show the parent alone.

The compounds below were run against T1, human GPR14 (Homo sapiens, UniProt Q9UKP6) (assay: Inhibition of binding of [125I]-labeled human urotensin II to human GPR14-expressing CHO cell membrane fraction). Details: 25° C., 3 hours, read-out: Inhibitory concentration (concentration at which the compound showed 50% inhibition of human GPR14 binding activity).
T1 construct: expressed in transfected cells
T1 sequence (Q9UKP6 1-389): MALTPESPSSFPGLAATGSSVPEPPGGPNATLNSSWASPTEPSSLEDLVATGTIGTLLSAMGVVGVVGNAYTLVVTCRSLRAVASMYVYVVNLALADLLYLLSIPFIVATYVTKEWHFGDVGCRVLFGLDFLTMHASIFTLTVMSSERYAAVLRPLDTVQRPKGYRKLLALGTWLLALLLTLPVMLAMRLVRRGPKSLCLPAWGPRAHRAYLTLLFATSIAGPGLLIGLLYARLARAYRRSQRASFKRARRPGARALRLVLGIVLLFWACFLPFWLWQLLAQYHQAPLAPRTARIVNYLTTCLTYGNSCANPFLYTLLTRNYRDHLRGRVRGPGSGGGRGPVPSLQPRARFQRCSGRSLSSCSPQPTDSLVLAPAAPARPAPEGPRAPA
Description: To 1×10^8 CHO/GPR14 cells were added 10 ml of homogenate buffer (10 mM NaHCO3, 5 mM EDTA, 0.5 mM PMSF, 1 μg/ml pepstatin, 4 μg/ml E64, 20 μg/ml leupeptin), and disrupted using Polytron (12,000 rpm, 1 minute). Cell debris solution was centrifuged at 1,000 g for 15 minutes to obtain a supernatant. The supernatant was then […] (in Beckman type 30 rotor, 30,000 rpm, 1 hour), and the resultant precipitant was collected as human GPR14-expressing CHO cell fraction.
Isotope-labeled human urotensin II to be used in experiments for testing inhibition of binding was prepared as described below. 5 μg of human urotensin II (available from Peptide Institute, Inc.) was dissolved in 25 μl of 0.4M sodium acetate (pH 5.6). To the solution was added 200 ng of lactoperoxidase (Wako Pure Chemical Industries, Ltd.) followed by 1 mCi [^125I]-sodium iodide (Amersham Pharmacia Biotech) and 200 ng of hydrogen peroxide (10 μl). The solution was left to stand at room temperature for 10 minutes, another 200 ng of hydrogen peroxide (10 μl) was added thereto and then the solution was left to stand for 10 minutes. The mixture was then purified by HPLC using TSKgel ODS-80Ts column (4.6 mm×25 cm, Toso Co., Ltd.) to obtain [^125I]-labeled human urotensin II.
Experiment for Testing the Ability of Test compound to Inhibit Binding of Urotensin II to GPR14 Using Human GPR14-Expressing Cell Fraction and Isotope-Labeled Urotensin II
Human GPR14-expressing CHO cell fraction was diluted in a membrane diluting buffer (20 mM phosphate buffer (pH7.3), 150 mM NaCl, 5 mM MgCl2, […], 0.05% CHAPS, 0.5 mM PMSF, 0.1 μg/ml Pepstatin, 20 μg/ml Leupeptin, 4 μg/ml E-64) to prepare a solution of cell membrane fraction (protein concentration: 3 μg/ml) for assay. […] Next, the filter was washed three times with membrane diluting buffer (0.2 ml), added with 20 μl of Microscinti 20 (Packard), and determined for radioactivity in Topcount (Packard). Specific-binding is calculated by subtracting non-specific binding from the total binding. […]
For O=C(CCCN1CCN(C(c2ccc(F)cc2)c2ccc(F)cc2)CC1)c1ccc2c(c1)CCNCC2 [Example 6, 4-{4-[bis(4-fluorophenyl)methyl]-1-piperazinyl}-1-(2,3,4,5-tetrahydro-1H-3-benzazepin-7-yl)-1-butanone trihydrochloride], the IC50 was 3.2 nM.
For O=S(=O)(NCCN1CCN(Cc2ccccc2)CC1)c1ccc2c(c1)CCNCC2 [Example 75, N-[2-(4-benzyl-1-piperazinyl)ethyl]-2,3,4,5-tetrahydro-1H-3-benzazepine-7-sulfonamide trihydrochloride], the IC50 was 8.6 nM.
O=C(NCCN1CCN(C(c2ccc(F)cc2)c2ccc(F)cc2)CC1)c1ccc2c(c1)CCNCC2 [Example 84, N-(2-{4-[bis(4-fluorophenyl)methyl]piperazin-1-yl}ethyl)-2,3,4,5-tetrahydro-1H-3-benzazepine-7-carboxamide trihydrochloride] gave an IC50 of 1.7 nM.
